According to US12691070B2, “Cationic lipids and preparation method thereof” (RiboX Therapeutics HK Limited, priority 2023, dated 2026):

Experiments:
[1] = LNP zeta potential (Zetasizer); assay type: physicochemical; settings: LNP with cirRNA (SEQ ID NO: 1)
How it was run: (§1)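 Ribogreen fluorescence with and without Triton X-100 gave encapsulation as 100% − (intact/lysed) signal; DLS size, PDI and zeta potential measured on a Zetasizer. Particles: 50:10:38.5:1.5 lipid mix, luciferase circRNA or mRNA, lipid:nucleotide 15 or 6, microfluidic assembly at pH 4.5, PBS-dialyzed.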

[2] = tested on: BALB/C mice; assay: In vivo expression, whole-body luminescence (IVIS); settings: cirRNA (SEQ ID NO: 1) LNPs, BALB/C mice
Procedure: 6-8 week old, female BALB/C mice were injected with 0.05 mg*kg-1 of RNA-LNPs encoding for firefly-luciferase by intravenous injection. At 6 hours post injection, animals were intraperitoneally injected with 15 mg/ml of Luciferin substrate and whole-body luminescence was determined by a bioluminescent in vivo imaging system (IVIS).

[3] = tested on: RAW 264.7 cells; assay: In vitro toxicity (CellTiter-Glo cell viability), RAW 264.7; assay type: cell-based; settings: cirRNA (SEQ ID NO: 1) LNPs; RAW 264.7 cells;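 also: percent of untreated cells luminescence signal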
How it was run: (§2)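 RNA-LNPs 1 μg/mL; 72 h post-transfection; CellTiter-Glo luminescence read-out; % viability calculated from signal.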

[4] = tested on: Hep G2 cells; assay: In vitro toxicity (CellTiter-Glo cell viability), Hep G2; assay type: cell-based; settings: cirRNA (SEQ ID NO: 1) LNPs; Hep G2 cells;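 also: percent of untreated cells luminescence signal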
How it was run: as §2

[5] = RNA encapsulation efficacy by Quant-IT Ribogreen kit; assay type: physicochemical; settings: LNP with cirRNA (SEQ ID NO: 1)
How it was run: as §1

[6] = LNP size and polydispersity index (PDI) by dynamic light scattering; assay type: physicochemical; settings: LNP with cirRNA (SEQ ID NO: 1); for Size: in nm (unit assumed)
How it was run: as §1

[7] = tested on: RAW 264.7 cells; assay: In vitro expression of firefly-luciferase, RAW 264.7; assay type: cell-based; settings: cirRNA (SEQ ID NO: 1) LNPs; firefly-luciferase luminescence; RAW 264.7 cells
How it was run: (§3)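 Luminescence from cell lysates reports expression: luciferase activity was measured 72 h after transfection with 100 ng/mL RNA-LNPs encoding firefly luciferase.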

[8] = tested on: Hep G2 cells; assay: In vitro expression of firefly-luciferase, Hep G2; assay type: cell-based; settings: cirRNA (SEQ ID NO: 1) LNPs; firefly-luciferase luminescence; Hep G2 cells
How it was run: as §3

Row | SMILES | Zeta (mV) [1] [mV] | In vivo Expression (Whole Body) [2] | In vitro Viability RAW [3] [%] | In vitro Viability HepG2 [4] [%] | Encapsulation Efficiency % [5] [%] | PDI [6] | Size [6] | In vitro Expression RAW [7] | In vitro Expression HepG2 [8]
1 | CCCCCCCCC(CCCCCCCC)OC(=O)CCCCCCCN(CCCCCCCCOC(=O)C(CCCCCC)CCCCCCCC)CCCOC(=O)NCCN1CCC1 (stereo not drawn) [Lipid 353] | 4.334 | 1.48E+06 | 40 | 37 | 95 | 0.2483 | 116.6 | 3.38E+03 | 4.17E+04
2 | CCCCCCCCCC(=O)OCCCCCCCN(CCCCCCCCOC(=O)C(CCCCCC)CCCCCCCC)CCCOC(=O)NCCCN(C)C (stereo not drawn) [Lipid 355] | 8.299 | 7.94E+05 | 72 | 123 | 90 | 0.2834 | 64.55 | 9.80E+02 | 1.70E+03
3 | CCCCCCCCCC(=O)OCCCCCCCN(CCCCCCCCOC(=O)C(CCCCCC)CCCCCCCC)CCCOC(=O)NCCCn1ccnc1 (stereo not drawn) [Lipid 356] | −0.5834 | 5.24E+05 | 84 | 112 | 77 | 0.423 | 336.5 | 1.06E+04 | 1.96E+03
4 | CCCCCCCCCC(=O)OCCCCCCCN(CCCCCCCCOC(=O)C(CCCCCC)CCCCCCCC)CCCOC(=O)NCCN1CCCC1 (stereo not drawn) [Lipid 357] | 6.34 | 1.85E+06 | 8 | 120 | 87 | 0.3136 | 104.3 | 7.92E+03 | 2.53E+05
5 | CCCCCCCCCC(=O)OCCCCCCCN(CCCCCCCCOC(=O)C(CCCCCC)CCCCCCCC)CCOC(=O)NCCCN1CCCCC1 (stereo not drawn) [Lipid 358] | 1.109 | 2.29E+07 | 83 | 121 | 87 | 0.1606 | 81.33 | 9.81E+03 | 1.88E+05
6 | CCCCCCCCCC(=O)OCCCCCCCN(CCCCCCCCOC(=O)C(CCCCCC)CCCCCCCC)CCCOC(=O)NCCN(C)C (stereo not drawn) [Lipid 359] | 6.547 | 1.85E+06 | 8 | 122 | 89 | 0.337 | 113.9 | 2.38E+03 | 9.26E+04
7 | CCCCCCCCCC(=O)OCCCCCCCN(CCCCCCCCOC(=O)C(CCCCCC)CCCCCCCC)CCCOC(=O)NCc1ncc[nH]1 (stereo not drawn) [Lipid 360] | −2.27 | 7.50E+07 | 86 | 113 | 85 | 0.2143 | 82.84 | 1.63E+05 | 1.22E+05
8 | CCCCCCCCCC(=O)OCCCCCCCN(CCCCCCCCOC(=O)C(CCCCCC)CCCCCCCC)CCCOC(=O)NCCCN(CC)CC (stereo not drawn) [Lipid 361] | 8.107 | 1.10E+06 | 4 | 114 | 88 | 0.438 | 91.91 | 2.97E+03 | 1.62E+05
9 | CCCCCCCCCC(=O)OCCCCCCCN(CCCCCCCCOC(=O)C(CCCCCC)CCCCCCCC)CCCOC(=O)NCCN1CCN(C)CC1 (stereo not drawn) [Lipid 362] | 11.87 | 1.68E+06 | 0 | 106 | 89 | 0.3944 | 88.25 | 1.99E+03 | 3.82E+04
10 | CCCCCCCCC(CCCCCCCC)OC(=O)CCCCCCCN(CCCCCCCCOC(=O)C(CCCCCC)CCCCCCCC)CCCNCCN(C)C (stereo not drawn) [Lipid 363] | 5.356 | 2.22E+06 | 65 | 112 | 92 | 0.2547 | 130.7 | 9.15E+03 | 3.17E+05
11 | CCCCCCCCCCC(CCCCCCCC)COC(=O)CCCCCN(CCCCCCCCOC(=O)C(CCCCCC)CCCCCCCC)CCCOC(=O)NCCN(C)C (stereo not drawn) [Lipid 364] | 0.2395 | 4.73E+06 | 64 | 81 | 89 | 0.2481 | 113.5 | 9.94E+04 | 1.11E+06
12 | CCCCCCCCCCC(CCCCCCCC)COC(=O)CCCCCN(CCCCCC(=O)OCC(CCCCCCCC)CCCCCCCCCC)CCCOC(=O)NCc1ncc[nH]1 (stereo not drawn) [Lipid 365] | −2.341 | 1.32E+08 | 88 | 109 | 92 | 0.1303 | 72.69 | 3.87E+04 | 3.17E+05
13 | CCCCCCCCCCC(CCCCCCCC)COC(=O)CCCCCN(CCCCCC(=O)OCC(CCCCCCCC)CCCCCCCCCC)CCCOC(=O)NCCCN(CC)CC (stereo not drawn) [Lipid 366] | −0.4163 | 3.26E+06 | 99 | 84 | 92 | 0.2572 | 118.4 | 2.01E+04 | 3.39E+05
14 | CCCCCCCCCCC(CCCCCCCC)COC(=O)CCCCCN(CCCCCC(=O)OCC(CCCCCCCC)CCCCCCCCCC)CCCOC(=O)NCCN1CCN(C)CC1 (stereo not drawn) [Lipid 367] | 0.7313 | 1.74E+06 | 90 | 85 | 91 | 0.2544 | 131.6 | 2.48E+04 | 5.88E+05
15 | CCCCCCCCCCC(CCCCCCCC)COC(=O)CCCCCN(CCCCCC(=O)OCC(CCCCCCCC)CCCCCCCCCC)CCCOC(=O)NCCNC(C)C (stereo not drawn) [Lipid 368] | 3.421 | 4.18E+06 | 67 | 68 | 92 | 0.2875 | 130.2 | 1.18E+05 | 1.22E+06
16 | CCCCCCCCCCC(CCCCCCCC)COC(=O)CCCCCN(CCCCCC(=O)OCC(CCCCCCCC)CCCCCCCCCC)CCCOC(=O)NCCN1CCC1 (stereo not drawn) [Lipid 372] | 4.685 | 1.10E+06 | 57 | 42 | 92 | 0.2663 | 118.2 | 3.30E+02 | 4.98E+03
17 | CCCCCCCCCCC(CCCCCCCC)COC(=O)CCCCCN(CCCCCC(=O)OCC(CCCCCCCC)CCCCCCCCCC)CCCOC(=O)NCCN1CCCCCC1 (stereo not drawn) [Lipid 373] | −3.695 | 5.62E+06 | 91 | 63 | 92 | 0.2353 | 92.65 | 2.32E+04 | 5.98E+04
18 | CCCCCCCCC(CCCCCC)C(=O)OCCCCCCCCN(CCCCCCCCOC(=O)C(CCCCCC)CCCCCCCC)CCCOC(=O)NCCN1CCN(C)CC1 (stereo not drawn) [Lipid 377] | 2.594 | 8.84E+06 | 85 | 71 | 93 | 0.2338 | 112.8 | 1.05E+05 | 2.55E+06
19 | CCCCCCCCC(CCCCCC)C(=O)OCCCCCCCCN(CCCCCCCCOC(=O)C(CCCCCC)CCCCCCCC)CCCOC(=O)NCCCN(C)C (stereo not drawn) [Lipid 378] | 6.729 | 8.79E+06 | 75 | 26 | 93 | 0.2637 | 130.6 | 6.58E+05 | 3.39E+06
